# Experimental data as given in patent publication US20230151049A1, “Compounds Useful in HIV Therapy” (priority 2020, published 2023).
# Like-named read-outs stand apart in the source and are kept apart here.
# Assay: in vivo
# Conditions: for concentration at 7 day: day 7
# Description: General Protocol for Prodrugs Rat PK Studies Conducted at ChemPartner, China
# A total of three naïve male Wistar Han rats, 200-250 g, were received from Beijing VR Laboratory Animal Co. LTD. Following an acclimation period, the animals were assigned to the study based on acceptable health as determined by a staff veterinarian and catheter patency. Fasting of the animals before or after dosing was not required.
# On Day 1, each animal received a single intramuscular injection of prepared test article at a target dose level of 20 mg/kg equivalent of EFdA and at a dose volume of 2 mL/kg. The injection sites were at gastrocnemius and identified with an indelible marker for daily monitoring during the study. The animals were manually restrained for dosing and were not sedated. The dose suspension was mixed well by inversion before each dose to ensure homogeneity. […] In addition, all animals are monitored twice daily by the veterinary staff for clinical abnormalities.
# Blood samples were collected from the study animals as detailed in the sample collection Table 6 below
# Each blood sample for PK (200 μL) was collected from tail vein. The blood was transferred to a tube containing NaF/Na2EDTA anticoagulant and inverted several times to mix. Draw 150 μL whole blood from the tube, add 150 uL 100 mM ammonium acetate, pH 4 buffer and mix well. The resulting blood samples were transferred to individual polypropylene tubes and immediately placed on dry ice until storage at nominally −80° C. prior to LC-MS/MS analysis.
# [1] = day 63, single IM Example 11A 20 mg/kg equivalent of EFdA
# [2] = day 70, single IM Example 11A 20 mg/kg equivalent of EFdA
# [3] = day 77, single IM Example 11A 20 mg/kg equivalent of EFdA
# [4] = day 84, single IM Example 11A 20 mg/kg equivalent of EFdA
# [5] = day 91, single IM Example 11A 20 mg/kg equivalent of EFdA
# [6] = day 21, single IM Example 16A 20 mg/kg equivalent of EFdA
# [7] = day 28, single IM Example 16A 20 mg/kg equivalent of EFdA
# [8] = day 35, single IM Example 18A 54 mg/kg
# [9] = day 42, single IM Example 18A 54 mg/kg
# [10] = day 49, single IM Example 18A 54 mg/kg
# [11] = day 35, single IM Example 19A 55 mg/kg
# [12] = day 42, single IM Example 19A 55 mg/kg
# [13] = day 49, single IM Example 19A 55 mg/kg
structure (smiles),measurement,setting,value
"C#C[C@]1(COP(=O)(N[C@@H](Cc2ccccc2)C(=O)OCCCCCCCCCCCC)OCC(=O)OCCCCCCCCCCCC)O[C@@H](n2cnc3c(N)nc(F)nc32)C[C@@H]1O (single isomer, unassigned) [Example 11A]",Mean concentration of EFdA,"day 21, single IM Example 11A 20 mg/kg equivalent of EFdA","BQL (BQL = below quantification limit, 0.3-0.5 ng/mL for Example 11A and 0.1-0.3 ng/mL for EFdA)"
same,Mean concentration of EFdA,"day 28, single IM Example 11A 20 mg/kg equivalent of EFdA","BQL (BQL = below quantification limit, 0.3-0.5 ng/mL for Example 11A and 0.1-0.3 ng/mL for EFdA)"
same,Mean concentration of EFdA,"day 35, single IM Example 11A 20 mg/kg equivalent of EFdA","BQL (BQL = below quantification limit, 0.3-0.5 ng/mL for Example 11A and 0.1-0.3 ng/mL for EFdA)"
same,Mean concentration of EFdA,"day 42, single IM Example 11A 20 mg/kg equivalent of EFdA","BQL (BQL = below quantification limit, 0.3-0.5 ng/mL for Example 11A and 0.1-0.3 ng/mL for EFdA)"
same,Mean concentration of EFdA,"day 49, single IM Example 11A 20 mg/kg equivalent of EFdA","BQL (BQL = below quantification limit, 0.3-0.5 ng/mL for Example 11A and 0.1-0.3 ng/mL for EFdA)"
same,Mean concentration of EFdA,"day 56, single IM Example 11A 20 mg/kg equivalent of EFdA","BQL (BQL = below quantification limit, 0.3-0.5 ng/mL for Example 11A and 0.1-0.3 ng/mL for EFdA)"
same,Mean concentration of EFdA,[1],"BQL (BQL = below quantification limit, 0.3-0.5 ng/mL for Example 11A and 0.1-0.3 ng/mL for EFdA)"
same,Mean concentration of Example 11A,[1],"BQL (BQL = below quantification limit, 0.3-0.5 ng/mL for Example 11A and 0.1-0.3 ng/mL for EFdA)"
same,Mean concentration of EFdA,[2],"BQL (BQL = below quantification limit, 0.3-0.5 ng/mL for Example 11A and 0.1-0.3 ng/mL for EFdA)"
same,Mean concentration of Example 11A,[2],"BQL (BQL = below quantification limit, 0.3-0.5 ng/mL for Example 11A and 0.1-0.3 ng/mL for EFdA)"
same,Mean concentration of EFdA,[3],"BQL (BQL = below quantification limit, 0.3-0.5 ng/mL for Example 11A and 0.1-0.3 ng/mL for EFdA)"
same,Mean concentration of Example 11A,[3],"BQL (BQL = below quantification limit, 0.3-0.5 ng/mL for Example 11A and 0.1-0.3 ng/mL for EFdA)"
same,Mean concentration of EFdA,[4],"BQL (BQL = below quantification limit, 0.3-0.5 ng/mL for Example 11A and 0.1-0.3 ng/mL for EFdA)"
same,Mean concentration of Example 11A,[4],"BQL (BQL = below quantification limit, 0.3-0.5 ng/mL for Example 11A and 0.1-0.3 ng/mL for EFdA)"
same,Mean concentration of EFdA,[5],"BQL (BQL = below quantification limit, 0.3-0.5 ng/mL for Example 11A and 0.1-0.3 ng/mL for EFdA)"
same,Mean concentration of Example 11A,[5],"BQL (BQL = below quantification limit, 0.3-0.5 ng/mL for Example 11A and 0.1-0.3 ng/mL for EFdA)"
same,concentration at 1 day,"male, Wistar Han, rat, whole blood, intramuscular, day 1, single IM Example 11A 20 mg/kg equivalent of EFdA, read-out: Mean concentration of Example 11A",207 ng/mL
same,concentration at 7 day,"male, Wistar Han, rat, whole blood, intramuscular, single IM Example 11A 20 mg/kg equivalent of EFdA, read-out: Mean concentration of Example 11A",6.93 ng/mL
same,concentration at 14 day,"male, Wistar Han, rat, whole blood, intramuscular, day 14, single IM Example 11A 20 mg/kg equivalent of EFdA, read-out: Mean concentration of Example 11A",0.991 ng/mL
same,concentration at 21 day,"male, Wistar Han, rat, whole blood, intramuscular, day 21, single IM Example 11A 20 mg/kg equivalent of EFdA, read-out: Mean concentration of Example 11A",2.68 ng/mL
same,concentration at 28 day,"male, Wistar Han, rat, whole blood, intramuscular, day 28, single IM Example 11A 20 mg/kg equivalent of EFdA, read-out: Mean concentration of Example 11A",2 ng/mL
same,concentration at 35 day,"male, Wistar Han, rat, whole blood, intramuscular, day 35, single IM Example 11A 20 mg/kg equivalent of EFdA, read-out: Mean concentration of Example 11A",1.35 ng/mL
same,concentration at 42 day,"male, Wistar Han, rat, whole blood, intramuscular, day 42, single IM Example 11A 20 mg/kg equivalent of EFdA, read-out: Mean concentration of Example 11A",1.03 ng/mL
same,concentration at 49 day,"male, Wistar Han, rat, whole blood, intramuscular, day 49, single IM Example 11A 20 mg/kg equivalent of EFdA, read-out: Mean concentration of Example 11A",0.929 ng/mL
same,concentration at 56 day,"male, Wistar Han, rat, whole blood, intramuscular, day 56, single IM Example 11A 20 mg/kg equivalent of EFdA, read-out: Mean concentration of Example 11A",0.95 ng/mL
"C#C[C@]1(COP(=O)(N[C@@H](C)C(=O)OCCCCCCCCCCCCCCCCCCCCCC)Oc2ccccc2)O[C@@H](n2cnc3c(N)nc(F)nc32)C[C@@H]1O (single isomer, unassigned) [Example 16A]",Mean concentration of EFdA,"day 1, single IM Example 16A 20 mg/kg equivalent of EFdA","BQL (BQL = below quantification limit, 0.3 ng/mL for both)"
same,Mean concentration of Example 16A,"day 14, single IM Example 16A 20 mg/kg equivalent of EFdA","BQL (BQL = below quantification limit, 0.3 ng/mL for both)"
same,Mean concentration of EFdA,[6],"BQL (BQL = below quantification limit, 0.3 ng/mL for both)"
same,Mean concentration of Example 16A,[6],"BQL (BQL = below quantification limit, 0.3 ng/mL for both)"
same,Mean concentration of EFdA,[7],"BQL (BQL = below quantification limit, 0.3 ng/mL for both)"
same,Mean concentration of Example 16A,[7],"BQL (BQL = below quantification limit, 0.3 ng/mL for both)"
same,concentration at 1 day,"male, Wistar Han, rat, in vivo, day 1, single IM Example 16A 20 mg/kg equivalent of EFdA, read-out: Mean concentration of Example 16A",3.05 ng/mL
same,concentration at 7 day,"male, Wistar Han, rat, in vivo, single IM Example 16A 20 mg/kg equivalent of EFdA, read-out: Mean concentration of Example 16A",1.03 ng/mL
"C#C[C@]1(COP(=O)(N[C@@H](Cc2ccccc2)C(=O)OCCCCCCCCCCCCCC)Oc2ccccc2)O[C@@H](n2cnc3c(N)nc(F)nc32)C[C@@H]1O (single isomer, unassigned) [Example 18A]",Mean concentration of EFdA,"day 28, single IM Example 18A 54 mg/kg","BQL (BQL = below quantification limit, 0.3 ng/mL for both)"
same,Mean concentration of EFdA,[8],"BQL (BQL = below quantification limit, 0.3 ng/mL for both)"
same,Mean concentration of Example 18A,[8],"BQL (BQL = below quantification limit, 0.3 ng/mL for both)"
same,Mean concentration of EFdA,[9],"BQL (BQL = below quantification limit, 0.3 ng/mL for both)"
same,Mean concentration of Example 18A,[9],"BQL (BQL = below quantification limit, 0.3 ng/mL for both)"
same,Mean concentration of EFdA,[10],"BQL (BQL = below quantification limit, 0.3 ng/mL for both)"
same,Mean concentration of Example 18A,[10],"BQL (BQL = below quantification limit, 0.3 ng/mL for both)"
same,concentration at 1 day,"male, Wistar Han, rat, in vivo, day 1, single IM Example 18A 54 mg/kg, read-out: Mean concentration of Example 18A",2.47 ng/mL
same,concentration at 7 day,"male, Wistar Han, rat, in vivo, single IM Example 18A 54 mg/kg, read-out: Mean concentration of Example 18A",12 ng/mL
same,concentration at 14 day,"male, Wistar Han, rat, in vivo, day 14, single IM Example 18A 54 mg/kg, read-out: Mean concentration of Example 18A",1.44 ng/mL
same,concentration at 21 day,"male, Wistar Han, rat, in vivo, day 21, single IM Example 18A 54 mg/kg, read-out: Mean concentration of Example 18A",0.947 ng/mL
same,concentration at 28 day,"male, Wistar Han, rat, in vivo, day 28, single IM Example 18A 54 mg/kg, read-out: Mean concentration of Example 18A",0.614 ng/mL
"C#C[C@]1(COP(=O)(N[C@@H](Cc2ccccc2)C(=O)OCCCCCCCCCCCCCCC)Oc2ccccc2)O[C@@H](n2cnc3c(N)nc(F)nc32)C[C@@H]1O (single isomer, unassigned) [Example 19A]",Mean concentration of EFdA,"day 28, single IM Example 19A 55 mg/kg","BQL (BQL = below quantification limit, 0.3 ng/mL for both)"
same,Mean concentration of EFdA,[11],"BQL (BQL = below quantification limit, 0.3 ng/mL for both)"
same,Mean concentration of Example 19A,[11],"BQL (BQL = below quantification limit, 0.3 ng/mL for both)"
same,Mean concentration of EFdA,[12],"BQL (BQL = below quantification limit, 0.3 ng/mL for both)"
same,Mean concentration of Example 19A,[12],"BQL (BQL = below quantification limit, 0.3 ng/mL for both)"
same,Mean concentration of EFdA,[13],"BQL (BQL = below quantification limit, 0.3 ng/mL for both)"
same,Mean concentration of Example 19A,[13],"BQL (BQL = below quantification limit, 0.3 ng/mL for both)"
same,concentration at 1 day,"male, Wistar Han, rat, in vivo, day 1, single IM Example 19A 55 mg/kg, read-out: Mean concentration of Example 19A",2.37 ng/mL
same,concentration at 7 day,"male, Wistar Han, rat, in vivo, single IM Example 19A 55 mg/kg, read-out: Mean concentration of Example 19A",9.08 ng/mL
same,concentration at 14 day,"male, Wistar Han, rat, in vivo, day 14, single IM Example 19A 55 mg/kg, read-out: Mean concentration of Example 19A",3.06 ng/mL
same,concentration at 21 day,"male, Wistar Han, rat, in vivo, day 21, single IM Example 19A 55 mg/kg, read-out: Mean concentration of Example 19A",1.45 ng/mL
same,concentration at 28 day,"male, Wistar Han, rat, in vivo, day 28, single IM Example 19A 55 mg/kg, read-out: Mean concentration of Example 19A",0.909 ng/mL
